The values that follow come from patent publication US20080153850A1, “Adamantyl Derivates as P2x7 Receptor Antagonists” (AstraZeneca AB, priority 2004, published 2008).

For one data set, the target named is T1, P2X7 receptor (Homo sapiens, UniProt Q99572).
T1 construct: 200 μl of a suspension of THP-1 cells; endogenous in cells; host or cells: THP-1 cells
T1 sequence (Q99572 1-595): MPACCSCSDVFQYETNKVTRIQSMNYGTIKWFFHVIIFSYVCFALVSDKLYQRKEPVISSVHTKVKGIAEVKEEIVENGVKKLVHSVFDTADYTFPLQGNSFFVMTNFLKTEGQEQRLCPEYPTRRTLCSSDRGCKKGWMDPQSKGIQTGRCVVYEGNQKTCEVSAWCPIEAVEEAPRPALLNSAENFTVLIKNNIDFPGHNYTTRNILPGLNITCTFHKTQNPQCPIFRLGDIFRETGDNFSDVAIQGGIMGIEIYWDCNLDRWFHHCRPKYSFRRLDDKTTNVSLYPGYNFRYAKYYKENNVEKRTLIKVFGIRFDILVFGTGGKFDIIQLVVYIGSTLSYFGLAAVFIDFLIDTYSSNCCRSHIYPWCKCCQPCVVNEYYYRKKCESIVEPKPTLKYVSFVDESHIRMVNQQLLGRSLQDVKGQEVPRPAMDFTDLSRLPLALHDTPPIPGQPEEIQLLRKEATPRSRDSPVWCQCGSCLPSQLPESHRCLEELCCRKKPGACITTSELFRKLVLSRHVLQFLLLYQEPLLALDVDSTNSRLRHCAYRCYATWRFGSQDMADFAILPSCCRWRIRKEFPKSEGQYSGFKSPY
As to the kind of experiment: P2X7 receptor antagonist test: bbATP-induced ethidium bromide fluorescence in THP-1 cells. The data set is classed as cell-based. The note with it: 10^-5M bbATP agonist, 10^-4M ethidium bromide, 37° C. one hour, negative log of concentration reducing bbATP agonist activity by 50%. Here is the method: Consequently, when the receptor is activated using bbATP in the presence of ethidium bromide (a fluorescent DNA probe), an increase in the fluorescence of intracellular DNA-bound ethidium bromide is observed. The increase in fluorescence can be used as a measure of P2X7 receptor activation and therefore to quantify the effect of a compound on the P2X7 receptor.
In this manner, each of the title compounds of the Examples was tested for antagonist activity at the P2X7 receptor. […] The plate was covered with a plastics sheet and incubated at 37° C. for one hour. The plate was then read in a Perkin-Elmer fluorescent plate reader, excitation 520 nm, emission 595 nm, slit widths: Ex 15 nm, Em 20 nm. For the purposes of comparison, bbATP (a P2X7 receptor agonist) and pyridoxal 5-phosphate (a P2X7 receptor antagonist) were used separately in the test as controls. From the readings obtained, a pIC50 figure was calculated for each test compound, this figure being the negative logarithm of the concentration of test compound necessary to reduce the bbATP agonist activity by 50%.

One may read the IC50 as the concentration that gives 50% inhibition. The low end stands for greater potency, the high end for weaker potency. With `O=C(O)c1ccc(-c2ccc(Cl)c(C(=O)NCC34CC5CC(CC(C5)C3)C4)c2)cc1` [Example 1, 4′-Chloro-3′-[[(tricyclo[3.3.1.1^3,7]dec-1-ylmethyl)amino]carbonyl]-[1,1′-biphenyl]-4-carboxylic acid], the IC50 on P2X7 receptor is 0.316 µM.

In general, melting point refers to the temperature of the solid-liquid transition. As to `O=C(NCC12CC3CC(CC(C3)C1)C2)c1cc(-c2ccncc2C(=O)O)ccc1Cl` [Example 70, 4-[4-Chloro-3-[[(tricyclo[3.3.1.1^3,7]dec-1-ylmethyl)amino]carbonyl]phenyl]-3-pyridinecarboxylic acid], the melting point was in the range of 104 to 107 °C. `Cc1ccc(-c2ccc(Cl)c(C(=O)NCC34CC5CC(CC(C5)C3)C4)c2)nc1C(=O)O` [Example 71, 6-[4-Chloro-3-[[(tricyclo[3.3.1.1^3,7]dec-1-ylmethyl)amino]carbonyl]phenyl]-3-methyl-2-pyridinecarboxylic acid] returned a melting point of 180 to 185 °C. In the case of `O=C(O)c1cc(C(F)(F)F)cc(-c2ccc(Cl)c(C(=O)NCC34CC5CC(CC(C5)C3)C4)c2)n1` [Example 72, 6-[4-Chloro-3-[[(tricyclo[3.3.1.1^3,7]dec-1-ylmethyl)amino]carbonyl]phenyl]-4-(trifluoromethyl)-2-pyridinecarboxylic acid], the melting point lay within 220 to 225 °C. With `CC(=O)Nc1ccc(-c2ccc(Cl)c(C(=O)NCC34CC5CC(CC(C5)C3)C4)c2)c(C)n1` [Example 73, 5-[6-(Acetylamino)-2-methyl-3-pyridinyl]-2-chloro-N-(tricyclo[3.3.1.1^3,7]dec-1-ylmethyl)-benzamide], the melting point lay in the range of 172 to 177 °C.
